Consider two compounds from patent US8232377B2, “Method for high-level secretory production of protein” (priority 2006, dated 2012).

The test system of assay [1] is O. minuta AK3RH and O. minuta AK3AHy. The assay can be described thus: Antibody production by transformed O. minuta with PMT inhibitor added, Western analysis of culture supernatant. Format: cell-based, Ogataea minuta. To be noted: Western analysis (FIG. 6). Here is the method: O. minuta AK3RH and O. minuta AK3AHy were cultured in BYPG medium (1% yeast extract (Difco), 2% polypeptone (Difco), 0.5% glycerol, and 0.1M phosphate buffer (pH 6.0)) for 2 days, and these strain were cultured in BYPM media [1% yeast extract (Difco), 2% polypeptone (Difco), 1.5% methanol, and 0.1M phosphate buffer (pH 6.0)] to which 0 μM, 1 μM, 5 μM, 10 μM, 20 μM, and 50 μM PMT inhibitors (the rhodanine-3-acetic acid derivative: 5-[[3,4-(1-phenylmethoxy)phenyl]methylene]-4-oxo-2-thioxo-3-thiazolidineacetic acid (compound (1c) described in Bioorganic & Medicinal Chemistry Letters, Vol. 14, p. 3975, 2004)) had been added at 28° C. for 2 days. A culture supernatant was prepared from the culture solution and subjected to SDS-PAGE. Thereafter, the separated protein was blotted on a PVDF membrane, and Western analysis was carried out using a labeled anti-human antibody (anti-human Fc antibody). […] The adequate concentration of the PMT inhibitor to be added was 5 μM. In such a case, the amount of antibody secretion and the percentage of aggregate formation were increased.

In assay [2] the test system is S. cerevisiae T2K01, T2K02, T2K03 and T2K04 strains. Put plainly: Antibody productivity of transformed S. cerevisiae with PMT inhibitor added, sandwich ELISA. Format: cell-based, Saccharomyces cerevisiae. To be noted: 10 μM PMT inhibitor in YPAD medium, 30° C., 3 days (FIG. 8B). The protocol:
The S. cerevisiae T2K01, S. cerevisiae T2K02, S. cerevisiae T2K03, and S. cerevisiae T2K04 strains prepared in Example 14 were cultured using ST medium at 30° C. for 3 days. The culture solution was inoculated into YPAD medium to result in a final concentration of 5% therein, and culture was conducted at 30° C. for 3 days. A culture supernatant was prepared from the culture solution, and the resultant was designated as a sample containing antibodies secreted and produced by yeast. The secreted and produced antibodies were subjected to quantitative assay via sandwich ELISA. TRAIL receptor proteins that were antigens of the anti-TRAIL receptor antibodies were adsorbed on a 96-well plate, a yeast sample was added, and detection was carried out using a peroxidase-labeled human IgG specific Fc antibody (Peroxidase-labeled affinity purified antibody to human IgG (Fc) (KPL)) and the ABTS peroxidase substrate (KPL). Antibodies produced in animal cells (NS0) were used as standard samples.
The S. cerevisiae T2K01, S. cerevisiae T2K02, S. cerevisiae T2K03, and S. cerevisiae T2K04 strains prepared in Example 14 were cultured using ST medium at 30° C. for 3 days. […]
In general terms: ELISA stands for enzyme-linked immunosorbent assay.

Assay [3] has as its system O. minuta AA2omH, AA2 ppH, AA2scH and AA2Hy strains. The assay can be described thus: Antibody production by O. minuta strains with HAC1 gene introduced using PMT inhibitor (1c), TR-FRET quantification. Format: cell-based, Ogataea minuta. As to conditions: 2 μM, plus 0.04 μM as OD600 increased by 1; 27° C., 3 days; HAC1 strains compared with control AA2Hy strain (FIG. 11). Here is the method:
(§1) 20 mM Tris-HCl buffer (pH 7.2) comprising 12 μl of 0.97 μg/ml LANCE Eu-W1024 labeled anti-human IgG (PerkinElmer), 8.3 ug/ml of biotin-conjugated mouse anti-human IgG (BD Bioscience), 16.7 ug/ml Surelight APC streptavidin (PerkinElmer), and 10% of Block Ace (Dainippon Pharmaceutical) was applied to a 96-well half area plate (Corning), and 2 μl of a sample solution prepared by adequately diluting the culture solution prepared in (2) above with 20 mM Tris-HCl buffer (pH 7.2) containing 10% of Block Ace was introduced therein, followed by agitation. The sample solution was subjected to the reaction at room temperature in the dark for 1 hour, and fluorescence was then assayed using EnVision (PerkinElmer). The amount of aggregate antibodies produced was determined based on the value at 665 nm/615 nm. Antibodies produced in animal cells (CHO) were used as standard samples. […]
A platinum loopful of the O. minuta AA2omH strain, the O. minuta AA2 ppH strain, the O. minuta AA2scH strain, and the O. minuta AA2Hy strain was inoculated into 5 ml of B2YP4G medium, cultured at 27° C. for 1 day, and then diluted with B2YP4G medium to adjust OD600 at 10. […] A culture supernatant was prepared from the culture solution, and the amount of antibody production was measured by the method described in Example 21 (3).
A general note: TR-FRET usually uses a lanthanide donor and a delayed reading to cut background.

The test system of assay [4] is O. minuta YY3P2omH strain. The assay can be described thus: Antibody production by PMT2-inactivated, HAC1-introduced O. minuta using PMT inhibitor (1c), TR-FRET quantification. To be noted: stock solution 2.5 mM; 27° C., 3 days (FIG. 18). Type of assay: cell-based, Ogataea minuta. Here is the method:
as §1
(§2) A platinum loopful of antibody-producing strains with an insertionally inactivated PMT gene and with the HAC1 gene introduced therein prepared in Example 25 (1) was inoculated into 5 ml of B2YP4G medium, cultured at 27° C. for 1 day, and diluted with B2YP4G medium to adjust OD600 to 10. […] Culture was conducted at 27° C. for an additional 3 days, OD600 was measured every 24 hours, and PMT inhibitors (1c) were added in amounts of 0.00032 μM, 0.0016 μM, 0.008 μM, and 0.04 μM, respectively, as the OD600 value increased by 1. […]

Assay [5] has as its system O. minuta YY3P4omH strain. Put plainly: Antibody production by PMT4-inactivated, HAC1-introduced O. minuta using PMT inhibitor (1c), TR-FRET quantification. Type of assay: cell-based, Ogataea minuta. To be noted: stock solution 10 mM; 27° C., 3 days (FIG. 18). The protocol: as §1, §2
The test system of the next assay is O. minuta YY1 strains. Put plainly: Evaluation of PMT inhibitor (5a): antibody production by O. minuta YY1, Western analysis and TR-FRET quantification. Format: cell-based, Ogataea minuta. To be noted: 1 μm, plus 0.02 μM as OD600 increased by 1, 27° C. The protocol:
20 mM Tris-HCl buffer (pH 7.2) comprising 12 μl of 0.97 μg/ml LANCE Eu-W1024 labeled anti-human IgG (PerkinElmer), 8.3 ug/ml of biotin-conjugated mouse anti-human IgG (BD Bioscience), 16.7 ug/ml Surelight APC streptavidin (PerkinElmer), and 10% of Block Ace (Dainippon Pharmaceutical) was applied to a 96-well half area plate (Corning), and 2 μl of a sample solution prepared by adequately diluting the culture solution prepared in (2) above with 20 mM Tris-HCl buffer (pH 7.2) containing 10% of Block Ace was introduced therein, followed by agitation. The sample solution was subjected to the reaction at room temperature in the dark for 1 hour, and fluorescence was then assayed using EnVision (PerkinElmer). The amount of aggregate antibodies produced was determined based on the value at 665 nm/615 nm. Antibodies produced in animal cells (CHO) were used as standard samples. […] However, similar effects of production could be expected even via introduction of the HAC1 gene derived from a species different from a host.
A platinum loopful of the O. minuta YY1 strains into which antibody genes had been introduced was inoculated into 5 ml of B2YP4G medium, cultured at 27° C. for 1 day, and diluted with B2YP4G medium to adjust OD600 at 10. […]

“5-[[3,4-(1-phenylmethoxy)phenyl]methylene]-4-oxo-2-thioxo-3-thiazolidineacetic acid [PMT inhibitor (1c)]”: in assay [1] (0, 1, 5, 10, 20 and 50 μM tested in BYPM medium, 28° C., 2 days), the “adequate concentration of the PMT inhibitor to be added” value was found to be 5 µM. In assay [1] (PMT inhibitor at 5 μM), the “amount of antibody secretion” value was “increased” and the “percentage of aggregate formation” value was “increased”. Besides, the “synergistic effects of coexpression of the activated HAC1 gene and the RRBP1 gene on antibody production” value in assay [2] is “further enhanced”. Also, the “effects of accelerating antibody secretion” value in assay [3] is on record as “more significant effects of accelerating antibody secretion”. Also, the “PMT inhibitor amount added as the OD600 value increased by 1 giving the highest antibody productivity” value in assay [4] is recorded as “approximately 0.008 μM”. Besides, in assay [5], the “PMT inhibitor amount added as the OD600 value increased by 1 giving the highest antibody productivity” value is “approximately 0.04 μM”.
Turning to `CC(Oc1cc(/C=C2\SC(=S)N(CC(=O)O)C2=O)ccc1OCCc1ccccc1)c1ccccc1` (stereo not drawn) [PMT inhibitor (5a), {(5Z)-4-oxo-5-[3-(1-phenylethoxy)-4-(2-phenylethoxy)benzylidene]-2-thioxo-1,3-thiazolidin-3-yl}acetic acid], the “effects compared with PMT inhibitor (1c)” value in the assay on O. minuta YY1 strains (3 days) is “effects equivalent to those of the PMT inhibitor (1c)”. Also, the “productivity of antibody aggregates” value in the assay on O. minuta YY1 strains (3 days (FIG. 19, FIG. 20)) is listed as “tend to increase”.
